The values that follow come from PubChem BioAssay AID330 (DTP/NCI, 2004).

Values joined by “and” are separate entries in the source; they are usually repeats but may differ in a detail not shown here. Equal entries are not always repeated. Inconclusive results and toxic doses are left out.

This assay relates to P388 leukemia ip, CD2F1 mice, survival T/C. Kind of assay: NCI In Vivo Anticancer Drug Screen. Data for tumor model P388 Leukemia (intraperitoneal) in CD2F1 (CDF1) mice. To be noted: endpoint: median survival time, higher = longer survival. In outline: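 Mice carrying the transplanted tumor received test compound or vehicle. Survival was recorded in each group, and the value is the treated-group measurement divided by that of the vehicle-treated control group.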

Where [1] appears, read: dose: 50.0 mg/kg/injection, schedule: Q01DX009 (ip), vehicle: saline with Tween-80.
[2] abbreviates: dose: 100.0 mg/kg/injection, schedule: Q01DX009 (ip), vehicle: saline with Tween-80.
[3] abbreviates: dose: 200.0 mg/kg/injection, schedule: Q01DX009 (ip), vehicle: saline with Tween-80.
Where [4] appears, read: dose: 50.0 mg/kg/injection, schedule: Q01DX005 (ip), vehicle: saline with Tween-80.
Setting [5] is: dose: 100.0 mg/kg/injection, schedule: Q01DX005 (ip), vehicle: saline with Tween-80.
Setting [6] is: dose: 200.0 mg/kg/injection, schedule: Q01DX005 (ip), vehicle: saline with Tween-80.
Setting [7] is: dose: 50.0 mg/kg/injection, schedule: Q01DX005 (ip), vehicle: Klucel (hydroxypropylcellulose) (HPC).
The mark [8] stands for this setting: dose: 100.0 mg/kg/injection, schedule: Q01DX005 (ip), vehicle: Klucel (hydroxypropylcellulose) (HPC).
The mark [9] stands for this setting: dose: 200.0 mg/kg/injection, schedule: Q01DX005 (ip), vehicle: Klucel (hydroxypropylcellulose) (HPC).
Where [10] appears, read: dose: 60.0 mg/kg/injection, schedule: Q01DX005 (ip), vehicle: saline with Tween-80.

For `C=C(C)C(=O)OCCN(C)C` (tested in a mixture with another compound), the T/C runs as follows: under setting [1], 100 % of control; under setting [2], 100 % of control; under setting [3], 100 % of control.
As for `COc1ccc(-c2c(-c3ccccc3)oc(/N=C/c3ccccc3)c2-c2ccccc2)cc1`, the T/C is 101 % of control (dose: 12.5 mg/kg/injection, schedule: Q01DX005 (ip), vehicle: saline with Tween-80); 90 % of control (dose: 25.0 mg/kg/injection, schedule: Q01DX005 (ip), vehicle: saline with Tween-80); 90 % of control under setting [4].
Consider `COc1cc(C2c3cc4c(cc3[C@@H](OC3OC5CO[C@@H](c6cccs6)OC5C(O)C3O)[C@H]3COC(=O)C23)OCO4)cc(OC)c1OC` (stereo not given in full), for which the T/C is, setting by setting: (dose: 2.0 mg/kg/injection, schedule: Q01DX005 (ip), vehicle: saline) 123 % of control; (dose: 8.0 mg/kg/injection, schedule: Q01DX005 (ip), vehicle: saline) 155 % of control; (dose: 16.0 mg/kg/injection, schedule: Q01DX005 (ip), vehicle: saline) 175 % of control and 185 % of control; (dose: 32.0 mg/kg/injection, schedule: Q01DX005 (ip), vehicle: saline) 203 % of control; (dose: 64.0 mg/kg/injection, schedule: Q01DX005 (ip), vehicle: saline) 225 % of control.
On to `OC(Cn1cccc1)Cn1cccc1`, for which the T/C runs as follows: (dose: 60.0 mg/kg/injection, schedule: Q01DX005 (ip), vehicle: saline) 100 % of control; (dose: 120.0 mg/kg/injection, schedule: Q01DX005 (ip), vehicle: saline) 103 % of control; (dose: 240.0 mg/kg/injection, schedule: Q01DX005 (ip), vehicle: saline) 100 % of control.
As for `CC1(C)OCC2OC3OC(C)(C)OC3C(OS(C)(=O)=O)C2O1` (stereo not given), the T/C is 98 % of control under setting [4], 105 % of control under setting [5] and 99 % of control under setting [6].
Take `Oc1ccccc1C=Nc1ccc2c(ccc3c4ccccc4ccc23)c1`: the T/C runs as follows: under setting [7], 111 % of control; under setting [8], 102 % of control; under setting [9], 116 % of control.
With `O=C(NCc1ccccn1)c1ccccc1`, the T/C is 103 % of control (dose: 50.0 mg/kg/injection, schedule: Q01DX009 (ip), vehicle: saline); 90 % of control (dose: 100.0 mg/kg/injection, schedule: Q01DX009 (ip), vehicle: saline); 100 % of control (dose: 200.0 mg/kg/injection, schedule: Q01DX009 (ip), vehicle: saline).
In the case of `Cc1nc2c(ccc3ccccc32)s1`, the T/C under setting [7] is 106 % of control, the T/C under setting [8] was 100 % of control and the T/C under setting [9] is 100 % of control.
In the case of `CC1(C)CN(Cc2ccccc2)C1(C)C#N` (stereo not given), the T/C reads like this: under setting [10], 100 % of control; (dose: 120.0 mg/kg/injection, schedule: Q01DX005 (ip), vehicle: saline with Tween-80) 105 % of control.
Turning to `CCc1nc(N)nc(N)c1-c1ccc(N2CCCCC2)cc1`, the T/C is, setting by setting: (dose: 7.5 mg/kg/injection, schedule: Q01DX005 (ip), vehicle: saline with Tween-80) 112 % of control; (dose: 15.0 mg/kg/injection, schedule: Q01DX005 (ip), vehicle: saline with Tween-80) 100 % of control; (dose: 30.0 mg/kg/injection, schedule: Q01DX005 (ip), vehicle: saline with Tween-80) 99 % of control.
Turning to `COCC1(C)CC2CCCCC2CC1(C)O` (stereo not given), the T/C was 93 % of control under setting [4], 95 % of control under setting [5] and 86 % of control under setting [6].
With `O=C(SCC(/C=N/Nc1ccc([N+](=O)[O-])cc1[N+](=O)[O-])c1ccccc1)c1ccccc1` (stereo not given), the T/C is 92 % of control (dose: 100.0 mg/kg/injection, schedule: Q01DX001 (ip), vehicle: Klucel (hydroxypropylcellulose) (HPC)); 89 % of control (dose: 200.0 mg/kg/injection, schedule: Q01DX001 (ip), vehicle: Klucel (hydroxypropylcellulose) (HPC)); 92 % of control (dose: 400.0 mg/kg/injection, schedule: Q01DX001 (ip), vehicle: Klucel (hydroxypropylcellulose) (HPC)).
Take `C=CCN(CC=C)c1cc(Cl)nnc1Cl`: the T/C runs as follows: (dose: 25.0 mg/kg/injection, schedule: Q01DX009 (ip), vehicle: other) 104 % of control; (dose: 50.0 mg/kg/injection, schedule: Q01DX009 (ip), vehicle: other) 102 % of control; (dose: 100.0 mg/kg/injection, schedule: Q01DX009 (ip), vehicle: other) 103 % of control; (dose: 200.0 mg/kg/injection, schedule: Q01DX009 (ip), vehicle: other) 109 % of control.
Regarding `COc1ccc(C[n+]2ccc3ccccc3c2C#N)cc1OC`, the T/C was 111 % of control (dose: 12.5 mg/kg/injection, schedule: Q04DX002 (ip), vehicle: saline) and 109 % of control (dose: 25.0 mg/kg/injection, schedule: Q04DX002 (ip), vehicle: saline).
As for `CS(=O)(=O)NC(=O)CCC(=O)Nc1ccc(Cl)cc1`, the T/C reads like this: (dose: 100.0 mg/kg/injection, schedule: Q01DX001 (ip), vehicle: saline with Tween-80) 100 % of control; (dose: 200.0 mg/kg/injection, schedule: Q01DX001 (ip), vehicle: saline with Tween-80) 97 % of control; (dose: 400.0 mg/kg/injection, schedule: Q01DX001 (ip), vehicle: saline with Tween-80) 96 % of control.
As to `O=C(N/N=C/c1ccco1)C(=O)Nc1ccc(Cl)c([N+](=O)[O-])c1`, the T/C runs as follows: under setting [4], 91 % of control; under setting [5], 89 % of control; under setting [6], 105 % of control.
As to `Cc1cc(C)c2c(n1)sc1c(=O)n(N)c(C)nc12`, the T/C runs as follows: under setting [10], 87 % of control; (dose: 240.0 mg/kg/injection, schedule: Q01DX005 (ip), vehicle: saline with Tween-80) 94 % of control and 95 % of control.
On to `COc1cc(-c2nn(CN3CCOCC3)c(=S)n2C)cc(OC)c1OC`, for which the T/C under setting [7] is 103 % of control, the T/C under setting [8] is 103 % of control and the T/C under setting [9] was 100 % of control.
Turning to `Cn1c(=NCCc2ccccc2)oc2ccc(Cl)cc21`, the T/C was 103 % of control under setting [4], 100 % of control under setting [5] and 100 % of control under setting [6].
With `COC(=O)C1=C2\c3cc4c(cc3CCN2C(=O)c2ccc(OC)c(OC)c2/C(OC)=C\1)OCO4`, the T/C is 93 % of control under setting [4], 90 % of control under setting [5] and 90 % of control under setting [6].
For the molecule `CCc1ccc2c(c1)C(=O)c1c(c(-c3ccccc3)c3ccccc3c1-c1ccccc1)C2=O`, the T/C is 98 % of control (dose: 1.5 mg/kg/injection, schedule: Q01DX005 (ip), vehicle: saline with Tween-80); 95 % of control (dose: 3.0 mg/kg/injection, schedule: Q01DX005 (ip), vehicle: saline with Tween-80); 90 % of control (dose: 6.0 mg/kg/injection, schedule: Q01DX005 (ip), vehicle: saline with Tween-80); 92 % of control under setting [5]; 92 % of control under setting [6].
Regarding `Cc1coc2c1CC1OC1(C)CCC1OC1(C)C2` (stereo not given), the T/C runs as follows: (dose: 12.5 mg/kg/injection, schedule: Q01DX005 (ip), vehicle: Klucel + Tween-80) 96 % of control; (dose: 25.0 mg/kg/injection, schedule: Q01DX005 (ip), vehicle: Klucel + Tween-80) 98 % of control; (dose: 50.0 mg/kg/injection, schedule: Q01DX005 (ip), vehicle: Klucel + Tween-80) 99 % of control; (dose: 100.0 mg/kg/injection, schedule: Q01DX005 (ip), vehicle: Klucel + Tween-80) 106 % of control.
With `CCOC(=O)CCCCCNc1nc(Cl)nc(Cl)n1`, the T/C reads like this: under setting [1], 98 % of control; under setting [2], 103 % of control; under setting [3], 87 % of control.
For `CC(=O)Nc1cc(NC(C)=O)cc(N(CCCl)CCCl)c1`, the T/C runs as follows: (dose: 3.13 mg/kg/injection, schedule: Q01DX009 (ip), vehicle: water) 118 % of control; (dose: 12.5 mg/kg/injection, schedule: Q01DX009 (ip), vehicle: water) 151 % of control; (dose: 16.5 mg/kg/injection, schedule: Q01DX009 (ip), vehicle: water) 162 % of control; (dose: 25.0 mg/kg/injection, schedule: Q01DX009 (ip), vehicle: water) 154 % of control and 169 % of control and 196 % of control; (dose: 37.5 mg/kg/injection, schedule: Q01DX009 (ip), vehicle: water) 122 % of control.
Take `O=C(/C=C\c1ccccc1)c1ccccc1`: the T/C (dose: 100.0 mg/kg/injection, schedule: Q04DX002 (ip), vehicle: saline) was 112 % of control; the T/C (dose: 200.0 mg/kg/injection, schedule: Q04DX002 (ip), vehicle: saline) was 110 % of control; the T/C (dose: 400.0 mg/kg/injection, schedule: Q04DX002 (ip), vehicle: saline) is 102 % of control.
